Counter-ions that a name gives are not always drawn. Like-named read-outs stand apart in the source and are kept apart here.
Legend:
serotonin transporter = target: T1, serotonin transporter (Rattus norvegicus, UniProt P31652); assay: 3H-paroxetine displacement from rat frontal cortical membranes (serotonin transporter affinity); type: binding
T1 construct: displace ^3H-paroxetine from male rat frontal cortical membranes; from tissue; host or cells: male rat frontal cortex membranes

human 5-HT1A receptors = target: T2, human 5-HT1A receptors (Homo sapiens, UniProt P08908); assay: [3H] 8-OHDPAT displacement from 5-HT1A receptor in transfected CHO cells; type: binding
T2 construct: expressed in transfected cells; host or cells: CHO cells
T2 sequence (P08908 1-422): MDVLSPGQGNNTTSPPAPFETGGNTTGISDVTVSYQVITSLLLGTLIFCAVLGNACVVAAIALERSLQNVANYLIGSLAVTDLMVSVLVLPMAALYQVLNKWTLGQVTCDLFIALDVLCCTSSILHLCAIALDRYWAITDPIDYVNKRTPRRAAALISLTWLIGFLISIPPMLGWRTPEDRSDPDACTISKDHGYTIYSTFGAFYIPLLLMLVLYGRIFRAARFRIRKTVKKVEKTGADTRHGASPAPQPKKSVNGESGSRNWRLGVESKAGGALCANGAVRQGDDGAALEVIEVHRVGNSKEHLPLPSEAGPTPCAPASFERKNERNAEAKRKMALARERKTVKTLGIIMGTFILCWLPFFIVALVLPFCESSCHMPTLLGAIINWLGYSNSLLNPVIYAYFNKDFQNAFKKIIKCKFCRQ
From the text: High affinity for the serotonin 5-HT1A receptor was established by testing the claimed compound's ability to displace [^3H] 8-OHDPAT (dipropylamino-tetralin) from the 5-HT1A serotonin receptor following a modification of the procedure of Hall et al., J. Neurochem. 44, 1685 (1985) which utilizes CHO cells stably transfected with human 5-HT1A receptors.

[1] = target: T3, cloned human 5-HT1A receptors (Homo sapiens, UniProt P08908); assay: 35S-GTPγS binding assay, agonist activity at 5-HT1A receptors; type: biochemical; conditions: for Emax: read-out: 5-HT1A Function (Emax); for EC50: 35S-GTPγS binding to membranes containing cloned human 5-HT1A receptors, read-out: 5-HT1A Function EC50
T3 construct: expressed in transfected cells
T3 sequence (P08908 1-422): T2 sequence (P08908 1-422)
Method: Agonist activity at 5-HT1A receptors was established by using a ^35S-GTPγbinding assay similar to that used by Lazareno and Birdsall (Br. J. Pharmacol. 109: 1120, 1993), in which the test compound's ability to affect the binding of ^35S-GTPγS to membranes containing cloned human 5-HT1A receptors was determined. Agonists produce an increase in binding whereas antagonists produce no increase but rather reverse the effects of the standard agonist 8-OHDPAT. The test compound's maximum stimulatory effect is represented as the Emax, while its potency is defined by the EC50.

[2] = displacement of 3H-paroxetine, male rat frontal cortical membranes, read-out: 5-HT Transporter Affinity KI
[3] = displacement of [3H] 8-OHDPAT, CHO cells stably transfected with human 5-HT1A receptors, read-out: 5-HT1A Receptor Affinity KI

T1 sequence (P31652 whole entry): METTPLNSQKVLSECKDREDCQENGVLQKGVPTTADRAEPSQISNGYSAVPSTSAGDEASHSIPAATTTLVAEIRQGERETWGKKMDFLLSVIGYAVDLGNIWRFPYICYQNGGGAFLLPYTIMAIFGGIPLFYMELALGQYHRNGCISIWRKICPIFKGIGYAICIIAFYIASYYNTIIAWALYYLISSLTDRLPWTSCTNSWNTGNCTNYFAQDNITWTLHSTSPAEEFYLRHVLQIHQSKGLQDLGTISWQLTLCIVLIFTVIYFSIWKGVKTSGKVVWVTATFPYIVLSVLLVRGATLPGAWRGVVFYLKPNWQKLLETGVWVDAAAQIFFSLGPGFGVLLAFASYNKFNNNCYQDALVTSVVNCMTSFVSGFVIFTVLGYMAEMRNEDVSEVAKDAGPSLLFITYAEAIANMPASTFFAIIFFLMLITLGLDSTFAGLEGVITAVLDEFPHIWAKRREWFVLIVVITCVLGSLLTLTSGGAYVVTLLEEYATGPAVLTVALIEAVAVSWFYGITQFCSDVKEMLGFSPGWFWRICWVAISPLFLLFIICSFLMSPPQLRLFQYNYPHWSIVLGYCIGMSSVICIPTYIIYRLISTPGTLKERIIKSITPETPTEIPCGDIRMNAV

Structure (SMILES) | melting point | Ki (serotonin transporter; [2]) [nM] | Ki (human 5-HT1A receptors; [3]) [nM] | Ki (serotonin transporter) [nM] | Emax [1] [%] | EC50 [1] [nM] | Ki (human 5-HT1A receptors) [nM] | 5-HT1A Function (Emax) ([1]; maximum stimulatory effect, 35S-GTPγS binding, cloned human 5-HT1A receptors, value in parentheses)
Fc1ccc2[nH]c(CC3CCN(CC4CCc5ccccc5O4)CC3)cc2c1 (stereo not shown) (as salt: oxalate) (hydrate or solvate) [Example 1, 2-{[1-(3,4-Dihydro-2H-chromen-2-ylmethyl)-4-piperidinyl]methyl}-5-fluoro-1H-indole] | 187 to 190 °C | – | – | – | – | – | – | –
Fc1ccc2[nH]c(CC3CCN(CC4CCc5ccccc5O4)CC3)cc2c1 (stereo not shown) [Example 1, 2-{[1-(3,4-Dihydro-2H-chromen-2-ylmethyl)-4-piperidinyl]methyl}-5-fluoro-1H-indole] | – | 0.13 | 265 | – | – | – | – | –
C1=C(c2c[nH]c3ccccc23)CCN(CC2CCc3ccccc3O2)C1 (stereo not shown) [Example 2, 3-[1-(3,4-Dihydro-2H-chromen-2-ylmethyl)-1,2,3,6-tetrahydro-4-pyridinyl]-1H-indole] | 171 to 173 °C | – | 281 | 1.18 | 50 | – | – | –
Fc1ccc2[nH]cc(C3=CCN(CC4CCc5ccccc5O4)CC3)c2c1 (stereo not shown) [Example 3, 3-[1-(3,4-Dihydro-2H-chromen-2-ylmethyl)-1,2,3,6-tetrahydro-4-pyridinyl]-5-fluoro-1H-indole] | 172 to 175 °C | – | 299 | 4.84 | 83 | 398 | – | –
COc1cccc2c1OC(CN1CC=C(c3c[nH]c4ccc(F)cc34)CC1)CC2 (stereo not shown) [Example 4, 5-Fluoro-3-(1-{[8-methoxy-3,4-dihydro-2H-chromen-2-yl]methyl}-1,2,3,6-tetrahydro-4-pyridinyl)-1H-indole] | 177 to 180 °C (dec.) | – | – | 9.5 | 92 | 283 | 34.4 | –
COc1cccc2c1OC(CN1CC=C(c3c[nH]c4ccccc34)CC1)CC2 (stereo not shown) [Example 5, (3-(1-{8-Methoxy-3,4-dihydro-2H-chromen-2-yl]methyl}-1,2,3,6-tetrahydro-4-pyridinyl)-1H-indole] | – | 10 | 39 | – | – | 189 | – | 79.0
Fc1ccc2c(C3=CCN(CC4CCc5ccccc5O4)CC3)c[nH]c2c1 (stereo not shown) [Example 6, 3-[1-(3,4-Dihydro-2H-chromen-2-ylmethyl)-1 2,3,6-tetrahydro-4-pyridinyl]-6-fluoro-1H-indole] | 160 to 161 °C | – | – | 0.34 | 100 | 2480 | – | –
COc1cccc2c1OC(CN1CC=C(c3c[nH]c4cc(F)ccc34)CC1)CC2 (stereo not shown) [Example 7, 6-Fluoro-3-(1-{[8-methoxy-3,4-dihydro-2H-chromen-2-yl]methyl}-1,2,3,6-tetrahydro-4-pyridinyl)-1H-indole] | > 170 °C (dec.) | – | – | 8.5 | 64 | 854 | 45 | –
COc1cccc2c1OC(CN1CC=C(c3c[nH]c4ccc(F)cc34)CC1)C=C2 (stereo not shown) [Example 8, 5-Fluoro-3-(1-{[8-methoxy-2H-chromen-2-yl]methyl}-1,2,3,6-tetrahydro-4-pyridinyl)-1H-indole] | 189 to 191 °C (dec.) | – | 143 | 20 | 60 | 1710 | – | –
COc1cccc2c1OC(CN1CC=C(c3c[nH]c4ccccc34)CC1)C=C2 (stereo not shown) [Example 9, 3-(1-{[8-Methoxy-2H-chromen-2-yl]methyl}-1,2,3,6-tetrahydro-4-pyridinyl)-1H-indole] | 198 to 200 °C (dec.) | – | – | 9.5 | 67 | 208 | 96.5 | –

— patent publication US6667322B2, “Antidepressant chroman and chromene derivatives of 3-(1,2,3,6-tetrahydro-4-pyridinyl)-1H-indole” (Wyeth, priority 2001, dated 2003)
